The test system of experiment [1] is Escherichia coli. The experiment is described as follows: Antimicrobial activity against Escherichia coli DH10B expressing Beta-lactamase SHV-1 K234R protein mutant by CLSI agar dilution method. Format: functional.
For experiment [2], the system named is Escherichia coli. Nature of the experiment: Activity of wild type Beta-lactamase SHV-1 in Escherichia coli DH10B by Henri-Michaelis-Menten steady state equation analysis.
In experiment [3] the test system is Escherichia coli. The experiment is described as follows: Antimicrobial activity against Escherichia coli DH10B expressing wild type Beta-lactamase SHV-1 by CLSI agar dilution method. It counts as functional. For orientation: In agar dilution the substance is mixed into plates at graded concentrations.
Experiment [4] relates to Escherichia coli. The experiment is described as follows: Antimicrobial activity against Escherichia coli DH10B by CLSI agar dilution method. It counts as functional.
The test system of experiment [5] is Escherichia coli. Nature of the experiment: Ratio of Kcat to Km for wild type Beta-lactamase SHV-1 in Escherichia coli DH10B.
Experiment [6] concerns Escherichia coli. Nature of the experiment: Antimicrobial activity against Escherichia coli DH10B expressing Beta-lactamase SHV-1 K234A protein mutant by CLSI agar dilution method. Format: functional.
Experiment [7] relates to Escherichia coli. Nature of the experiment: Antimicrobial activity against Escherichia coli DH10B expressing Beta-lactamase SHV-1 K234X protein mutant by CLSI agar dilution method. It counts as functional.
Experiment [8] deals with Escherichia coli. Nature of the experiment: Activity of Beta-lactamase SHV-1 K234R protein mutant in Escherichia coli DH10B by Henri-Michaelis-Menten steady state equation analysis.
For experiment [9], the system named is Escherichia coli. Nature of the experiment: Binding affinity to Beta-lactamase SHV-1 K234R protein mutant in Escherichia coli DH10B assessed as change in secondary structure at 50 uM by circular dichroism analysis. (Circular dichroism is the unequal absorption of left and right circularly polarised light.)
Experiment [10] deals with Escherichia coli. Nature of the experiment: Binding affinity to Beta-lactamase SHV-1 K234R protein mutant in Escherichia coli DH10B assessed as melting temperature at 50 uM by circular dichroism analysis.
Experiment [11] is described as follows: Inhibition of wild type Beta-lactamase SHV-1 in Escherichia coli DH10B by Henri-Michaelis-Menten steady state equation analysis.
The subject of experiment [12] is Escherichia coli. Nature of the experiment: Binding affinity to wild type Beta-lactamase SHV-1 in Escherichia coli DH10B assessed as change in secondary structure at 50 uM by circular dichroism analysis.
Experiment [13] is described as follows: Inhibition of Beta-lactamase SHV-1 K234R protein mutant in Escherichia coli DH10B by Henri-Michaelis-Menten steady state equation analysis.
The subject of experiment [14] is Escherichia coli. The experiment is described as follows: Binding affinity to wild type Beta-lactamase SHV-1 in Escherichia coli DH10B assessed as melting temperature at 50 uM by circular dichroism analysis.
In experiment [15] the test system is Escherichia coli. The experiment is described as follows: Selectivity ratio of Ki for Beta-lactamase SHV-1 in Escherichia coli DH10B to Ki for Beta-lactamase SHV-1 K234R protein mutant in Escherichia coli DH10B.
For experiment [16], the system named is Escherichia coli. The experiment is described as follows: Antimicrobial activity against Escherichia coli DH10B expressing wild type Beta-lactamase SHV1 gene by CLSI agar dilution method in presence of ampicillin. Format: functional.
Experiment [17] has as its system Escherichia coli. Nature of the experiment: Antimicrobial activity against Escherichia coli DH10B by CLSI agar dilution method in presence of ampicillin. It counts as functional.
Experiment [18] relates to Escherichia coli. The experiment is described as follows: Antimicrobial activity against Escherichia coli DH10B expressing Beta-lactamase SHV K234R mutant by CLSI agar dilution method in presence of ampicillin. It counts as functional.
The test system of experiment [19] is Escherichia coli. Nature of the experiment: Ratio of Kcat to Km for Beta-lactamase SHV-1 K234R protein mutant in Escherichia coli DH10B.
Experiment [20] concerns Escherichia coli. The experiment is described as follows: Antimicrobial activity against Escherichia coli DH10B expressing Beta-lactamase SHV K234A mutant by CLSI agar dilution method in presence of ampicillin. Format: functional.
The test system of experiment [21] is Escherichia coli. Nature of the experiment: Antimicrobial activity against Escherichia coli DH10B expressing Beta-lactamase SHV K234X mutant by CLSI agar dilution method in presence of ampicillin. It counts as functional.

Values after ≈ are worked out from the molar mass of the structure shown. Active and inactive are the calls of the source. No cut-off for these calls is given here.

For orientation: MIC means the least concentration at which growth counts as inhibited. A word on the Km: it is the concentration of substrate that gives half-maximal velocity. In general, kcat refers to the number of substrate molecules converted per active site and unit of time at saturation. What is called kcat/Km is the turnover number divided by the Michaelis constant. Take `CC(=O)OCC1=C(C(=O)O)N2C(=O)[C@@H](NC(=O)Cc3cccs3)[C@H]2SC1` [CEPHALOTHIN]: the MIC with Escherichia coli [1] was found to be 16 µg/mL (≈ 40.4 µM); with Escherichia coli [3], 256 µg/mL (≈ 646 µM); against Escherichia coli [4], 2 µg/mL (≈ 5.04 µM); in the experiment with Escherichia coli [6], 8 µg/mL (≈ 20.2 µM); against Escherichia coli [7], 8 µg/mL (≈ 20.2 µM). Also, the Km in the experiment on Escherichia coli [2] came out at 48.9 µM; with Escherichia coli [8] it was 29 µM. The kcat with Escherichia coli [2] worked out at 42.6 s⁻¹. Also, in the experiment with Escherichia coli [5], the catalytic efficiency (kcat/Km) turned out to be 870000 M⁻¹ s⁻¹.
For orientation: Ki means the equilibrium dissociation constant of an inhibitor or competing ligand from its target. Consider `O=C(Cc1cccs1)NCB(O)O`, for which the inhibition result in the experiment with Escherichia coli [9] is “inactive”. The figures for the Tm in the experiment on Escherichia coli [10] and with Escherichia coli [14] were 48.9 °C and 55.1 °C, respectively. For the same molecule, the Ki in experiment [11] worked out at 20000 nM; in [13] it was 61000 nM. Also, in the experiment on Escherichia coli [12], the inhibition entry was “Active”.
As for `CCOc1ccc2ccccc2c1C(=O)N[C@@H](Cc1cccc(C(=O)O)c1)B(O)O`, the Ki in experiment [11] was determined as 37 nM; in experiment [13] it was 48 nM.
For the molecule `CCN1CCN(C(=O)N[C@@H](C(=O)N[C@@H](Cc2cccc(C(=O)O)c2)B(O)O)c2ccc(O)cc2)C(=O)C1=O`, the Ki in experiment [11] was 9.3 nM; in experiment [13] it was 13.5 nM.
On to `N[C@@H](C(=O)N[C@@H](Cc1cccc(C(=O)O)c1)B(O)O)c1ccccc1`, for which the Tm in the experiment on Escherichia coli [10] is 54.8 °C; in the experiment on Escherichia coli [14], 61.4 °C. The Ki is 56 nM in experiment [11] and 2.4 nM in [13]. The Ratio Ki with Escherichia coli [15] stood at 20.
As for `CCN1CCN(C(=O)N[C@@H](C(=O)N[C@@H]2C(=O)N3[C@@H]2SC(C)(C)[C@@H]3C(=O)O)c2ccccc2)C(=O)C1=O` [PIPERACILLIN], the MIC against Escherichia coli [1] was 2050 µg/mL (≈ 3960 µM); with Escherichia coli [3], greater than 4100 µg/mL; against Escherichia coli [4] it was 1 µg/mL (≈ 1.93 µM); against Escherichia coli [6], 8 µg/mL (≈ 15.5 µM); with Escherichia coli [7] it was 4 µg/mL (≈ 7.73 µM). The Km in the experiment on Escherichia coli [2] turned out to be 74.6 µM; with Escherichia coli [8] it was 305 µM. In addition, the kcat with Escherichia coli [2] was found to be 1180 s⁻¹. Also, the kcat/Km with Escherichia coli [5] came out at 1.58e+07 M⁻¹ s⁻¹.
Consider `O=C(O)[C@H]1/C(=C/CO)O[C@@H]2CC(=O)N21` [CLAVULANIC ACID], for which the inhibition result in the experiment on Escherichia coli [9] and in the experiment with Escherichia coli [12] was “Active” each time. For the same molecule, the Tm in the experiment with Escherichia coli [10] is 46.1 °C; with Escherichia coli [14] it was 55 °C. For the same molecule, the MIC with Escherichia coli [16] is 4 µg/mL; in the experiment with Escherichia coli [17], less than 0.06 µg/mL; with Escherichia coli [18] it was 16 µg/mL.
As to `CC1(C)S[C@@H]2[C@H](NC(=O)[C@H](N)c3ccccc3)C(=O)N2[C@H]1C(=O)O` [AMPICILLIN], the MIC against Escherichia coli [1] was 16400 µg/mL (≈ 46900 µM); with Escherichia coli [3], greater than 16400 µg/mL; against Escherichia coli [4] it was 1 µg/mL (≈ 2.86 µM); in the experiment on Escherichia coli [6] it was 32 µg/mL (≈ 91.6 µM); with Escherichia coli [7] it was 4 µg/mL (≈ 11.4 µM).
For `O=C(Cc1cccs1)N[C@@H](Cc1cccc(C(=O)O)c1)B(O)O`, the Ki in [11] is 460 nM; in [13] it was 12 nM.
For `O=C(Cc1cccs1)N[C@@H]1C(=O)N2C(C(=O)O)=C(/C=C/c3ccc([N+](=O)[O-])cc3[N+](=O)[O-])CS[C@H]12`, the values for the Km in the experiment on Escherichia coli [2] and in the experiment on Escherichia coli [8] were 24.7 µM and 10.4 µM, respectively. Besides, the kcat in the experiment with Escherichia coli [2] is 348 s⁻¹; in the experiment with Escherichia coli [8] it was 45.2 s⁻¹. In addition, the kcat/Km in the experiment on Escherichia coli [5] was 1.41e+07 M⁻¹ s⁻¹; in the experiment on Escherichia coli [19] it was 4.3e+06 M⁻¹ s⁻¹.
Regarding `CC1(C)[C@H](C(=O)O)N2C(=O)C[C@H]2S1(=O)=O` [SULBACTAM], the inhibition entry in the experiment on Escherichia coli [9] is “inactive”. The inhibition entry with Escherichia coli [12] is “Active”. The MIC was less than 0.06 µg/mL in the experiment on Escherichia coli [20]; 512 µg/mL in the experiment with Escherichia coli [16]; less than 0.06 µg/mL with Escherichia coli [21]; less than 0.06 µg/mL in the experiment with Escherichia coli [17]; 64 µg/mL in the experiment on Escherichia coli [18]. In the experiment with Escherichia coli [14], the Tm was 54.4 °C.
As to `C[C@]1(Cn2ccnn2)[C@H](C(=O)O)N2C(=O)C[C@H]2S1(=O)=O` [TAZOBACTAM], the inhibition result with Escherichia coli [9] is “inactive”. Moreover, the figures for the Tm in the experiment with Escherichia coli [10] and in the experiment on Escherichia coli [14] were 49 °C and 54.4 °C, respectively. Also, in the experiment on Escherichia coli [12], the inhibition entry was “Active”. Besides, the MIC in the experiment on Escherichia coli [20] was less than 0.06 µg/mL; in the experiment on Escherichia coli [16], 128 µg/mL; in the experiment on Escherichia coli [21], less than 0.06 µg/mL; in the experiment on Escherichia coli [17] it was less than 0.06 µg/mL; with Escherichia coli [18], 16 µg/mL.

Source of the values: ChEMBL document CHEMBL2321809 (J Med Chem, 2013).
